The values below are quoted from earlier work in patent US4474765A, “Biologically active peptides” (Farmitalia Carlo Erba S.p.A., priority 1982, dated 1984).

The series relates to release of ACTH, β-endorphin, growth hormone, TSH and prolactin. Particulars: literature, Montecucchi et al. 1979.

As to `CC[C@H](C)[C@H](NC(=O)[C@@H](NC(=O)[C@H](CC(=O)O)NC(=O)[C@H](CC(C)C)NC(=O)[C@H](CC(C)C)NC(=O)[C@H](CC(C)C)NC(=O)[C@H](CCCNC(=N)N)NC(=O)[C@H](CC(N)=O)NC(=O)[C@H](CC(N)=O)NC(=O)[C@H](C)NC(=O)[C@H](C)NC(=O)[C@H](CCC(N)=O)NC(=O)[C@H](CCC(N)=O)NC(=O)[C@H](CCCCN)NC(=O)[C@H](CCC(=O)O)NC(=O)[C@H](CCCCN)NC(=O)[C@H](CCC(=O)O)NC(=O)[C@H](CCC(N)=O)NC(=O)[C@H](CCCCN)NC(=O)[C@H](CCC(=O)O)NC(=O)[C@@H](NC(=O)[C@H](CCC(=O)O)NC(=O)[C@@H](NC(=O)[C@H](CCSC)NC(=O)[C@H](CCCCN)NC(=O)[C@H](CCCNC(=N)N)NC(=O)[C@H](CC(C)C)NC(=O)[C@H](CC(C)C)NC(=O)[C@H](CCC(=O)O)NC(=O)[C@H](CC(C)C)NC(=O)[C@H](CO)NC(=O)[C@H](CC(C)C)NC(=O)[C@H](CC(=O)O)NC(=O)[C@@H](NC(=O)[C@H](CO)NC(=O)[C@@H](NC(=O)[C@@H]1CCCN1C(=O)[C@@H]1CCCN1C(=O)CNC(=O)[C@@H]1CCC(=O)N1)[C@@H](C)CC)[C@@H](C)CC)[C@@H](C)CC)[C@@H](C)CC)[C@@H](C)O)C(N)=O` [sauvagine], the “pharmacological activities (hormone release)” value was “release of ACTH and β-endorphin, and inhibition of the release of growth hormone, TSH and prolactin”.
